We go through eight compounds from US12466820B2, “Amino quinazoline derivatives as P2X3 inhibitors” (CHIESI FARMACEUTICI S.p.A., priority 2019, dated 2025).

One assay addresses T1, h P2X3 (Homo sapiens, UniProt P56373).
T1 sequence (P56373 1-397): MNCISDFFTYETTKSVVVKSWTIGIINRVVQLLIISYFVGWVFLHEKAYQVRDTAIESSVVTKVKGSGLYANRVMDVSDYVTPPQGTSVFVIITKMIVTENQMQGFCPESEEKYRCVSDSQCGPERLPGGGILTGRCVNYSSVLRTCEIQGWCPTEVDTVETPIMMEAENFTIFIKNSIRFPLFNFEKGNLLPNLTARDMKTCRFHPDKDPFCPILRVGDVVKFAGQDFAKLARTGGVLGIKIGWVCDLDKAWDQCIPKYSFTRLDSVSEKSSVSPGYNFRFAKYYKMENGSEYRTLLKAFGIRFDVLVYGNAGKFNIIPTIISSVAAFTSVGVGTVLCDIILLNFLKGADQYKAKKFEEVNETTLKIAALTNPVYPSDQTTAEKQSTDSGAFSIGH
Kind of assay: In vitro electrophysiology assay for P2X3 (automated whole-cell patch clamp, Sophion Qube). Particulars: range of activity. Format: cell-based. The procedure, abridged: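 Whole-cell automated patch clamp at room temperature, cells held at −60 mV; after two 800 nM α,β-MeATP baseline responses, antagonist preincubated 10 min then co-applied with 800 nM α,β-MeATP. Inhibition of peak current vs second agonist response; IC50 from 10-concentration curves, one concentration per cell.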

In a further assay the target is T2, h P2X2/3 (Homo sapiens, UniProt P56373+Q9UBL9).
T2 sequence (P56373 1-397): T1 sequence (P56373 1-397)
T2 sequence (Q9UBL9 1-471): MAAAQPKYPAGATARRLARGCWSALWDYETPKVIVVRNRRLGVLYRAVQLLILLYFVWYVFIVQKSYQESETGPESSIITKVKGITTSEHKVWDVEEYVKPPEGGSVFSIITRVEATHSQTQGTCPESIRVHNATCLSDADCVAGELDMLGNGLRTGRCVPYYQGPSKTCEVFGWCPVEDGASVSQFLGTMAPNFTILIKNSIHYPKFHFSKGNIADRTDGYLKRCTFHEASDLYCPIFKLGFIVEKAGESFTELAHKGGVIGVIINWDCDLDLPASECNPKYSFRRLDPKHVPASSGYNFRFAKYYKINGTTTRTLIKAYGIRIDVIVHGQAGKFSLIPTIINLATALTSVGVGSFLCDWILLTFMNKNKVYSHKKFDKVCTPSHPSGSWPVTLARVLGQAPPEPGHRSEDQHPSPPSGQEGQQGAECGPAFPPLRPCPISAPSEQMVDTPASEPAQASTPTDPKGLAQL
Kind of assay: In vitro electrophysiology assay for P2X2/3 (same protocol, 10 μM ATP as agonist). Particulars: Table 7, range of activity. Format: cell-based. As for the experimental part: Cells expressing P2X3 receptors were grown according to standard practice and maintained at 37° C. in a 5% humidified CO2 atmosphere. The cells were seeded into T175 flask 2 days prior to the day of the assay and dissociated from the flasks using TrypLE when grown to confluence of 80-90%. The dissociated cells were resuspended in serum free media at a cell density of 3×10^6 cells/ml and loaded onto the Sophion Qube automated patch-clamp system. The extracellular assay buffer contained 145 mM NaCl, 4 mM KCl, 2 mM CaCl2), 1 mM MgCl2, 10 mM HEPES, and 10 mM glucose at pH 7.4. The intracellular assay solution contained 140 mM CsF, 10 mM NaCl, 10 mM EGTA, 10 mM HEPES at pH 7.2. Agonist stock solutions were prepared in H2O and diluted in bath solution prior to use. All antagonists were prepared as 10 mM stock solutions in DMSO and diluted in bath solution prior to use. All experiments were performed under the whole-cell patch clamp configuration at room temperature with 384 individual cells being voltage clamped at −60 mV simultaneously on the Sophion Qube instrument. Two baseline responses were established with the application of α,β-MeATP (800 nM), with the subsequent agonist applications being washed out using extracellular assay buffer containing 0.5 U/ml apyrase. Following the second agonist application, antagonist was incubated in the absence of α,β-MeATP for 10 minutes. After antagonist preincubation, 800 nM α,β-MeATP and antagonist were co-administered to determine the inhibitory effect of the antagonist. One concentration of an antagonist was assessed against a single cell, with different concentrations of the antagonist applied to other cells on the 384 recording substrate. The control P2X3 current amplitude was taken from the peak current amplitude from the second agonist response prior to preincubation with antagonist. The peak P2X3 current amplitude in the presence of antagonist was used to calculate the inhibitory effect at each concentration of the antagonist according to the following equation: […]
Concentration-response curves were constructed from ten different concentrations with each concentration of antagonist tested on at least two individual cells. The concentration of the antagonist to inhibit P2X3 current by 50% (IC50) was determined by fitting the data with the following equation: […]
Where ‘a’ is minimum response, ‘b’ is maximum response, ‘c’ is IC50 and ‘d’ is Hill slope.
Representative compound of the present invention have been also tested for P2X2/3 receptor.
The same assay protocol was used for the P2X2/3 assay as the P2X3 assay with two modifications: 1) 10 μM ATP was used as the agonist; and 2) the mean current amplitude was measured seven seconds after the application of agonist.

Where [1] appears, read: Table 6, inhibition of P2X3 current, agonist α,β-MeATP (800 nM).

As a reminder, the IC50 is the concentration at which inhibition is half-maximal. A low value points to higher potency.

Molecules are shown by their SMILES. Bounds are passed on as bounds.

On to `COc1cc(-c2ccc(F)cn2)cc2c(NCc3ccc(C)nc3)ncnc12` [Example 149, 6-(5-fluoropyridin-2-yl)-8-methoxy-N-((6-methylpyridin-3-yl)methyl)quinazolin-4-amine], for which the IC50 at h P2X3 (setting [1]) was less than 316 nM; against h P2X3 (Table 7), less than 316 nM; at h P2X2/3, 3160 to 31600 nM.

`COc1cc(-c2ccc(C)cn2)cc2c(NCc3nc(C)no3)ncnc12` [Example 142, 8-methoxy-N-[(3-methyl-1,2,4-oxadiazol-5-yl)methyl]-6-(5-methyl-2-pyridyl)quinazolin-4-amine]: the IC50 at h P2X3 (setting [1]) is less than 316 nM; on h P2X3 (Table 7), less than 316 nM; at h P2X2/3, 3160 to 31600 nM.

As for `COc1cc(-c2ccc(C)cn2)cc2c(NC(C)c3nnc(C)s3)ncnc12` (single isomer, unassigned) [Example 127, 8-methoxy-6-(5-methyl-2-pyridyl)-N-[1-(5-methyl-1,3,4-thiadiazol-2-yl)ethyl]quinazolin-4-amine], the half-maximal inhibitory concentration (IC50) at h P2X3 (setting [1]) is less than 316 nM; against h P2X3 (Table 7), less than 316 nM; on h P2X2/3 it was 3160 to 31600 nM.

As for `COc1cc(-c2ccc(F)cc2)cc2c(NC(C)c3cccc(=O)[nH]3)ncnc12` (single isomer, unassigned) [Example 190, 6-(1-((6-(4-Fluorophenyl)-8-methoxyquinazolin-4-yl)amino)ethyl)pyridin-2(1H)-one], the IC50 on h P2X3 (setting [1]) was in the range of 316 to 3160 nM; against h P2X3 (Table 7), 316 to 3160 nM; on h P2X2/3, 3160 to 31600 nM.

Consider `COc1cc(-c2ccc(F)cn2)cc2c(NC(C)c3nnc(C)s3)ncnc12` (single isomer, unassigned) [Example 174, 6-(5-fluoropyridin-2-yl)-8-methoxy-N-(1-(5-methyl-1,3,4-thiadiazol-2-yl)ethyl)quinazolin-4-amine], for which the IC50 on h P2X3 (setting [1]) and against h P2X3 (Table 7) was less than 316 nM each time. Besides, at h P2X2/3, the “h P2X2/3” value is recorded as “+ (+: 5.5<pIC50 h P2X3 or h P2X2/3>4.5)”.

For the compound `COc1cc(-c2ncc(C)cn2)cc2c(NCc3nc(C(F)(F)F)no3)ncnc12` [Example 144, 8-methoxy-6-(5-methylpyrimidin-2-yl)-N-[[3-(trifluoromethyl)-1,2,4-oxadiazol-5-yl]methyl]quinazolin-4-amine], the IC50 is less than 316 nM on h P2X3 (setting [1]), less than 316 nM at h P2X3 (Table 7) and 3160 to 31600 nM on h P2X2/3.

With `COc1cc(-c2ccc(F)cc2)cc2c(NC(C)c3cccc(=O)[nH]3)ncnc12` (single isomer, unassigned) [Example 191, 6-(1-((6-(4-Fluorophenyl)-8-methoxyquinazolin-4-yl)amino)ethyl)pyridin-2(1H)-one], the IC50 on h P2X3 (setting [1]) is less than 316 nM; on h P2X3 (Table 7), less than 316 nM; at h P2X2/3, 316 to 3160 nM.

For `COc1cc(-c2ccc(F)cc2)cc2c(NC(C)c3nc(-c4ccncc4)no3)ncnc12` (single isomer, unassigned) [Example 193, 6-(4-fluorophenyl)-8-methoxy-N-(1-(3-(pyridin-4-yl)-1,2,4-oxadiazol-5-yl)ethyl)quinazolin-4-amine], the IC50 is less than 316 nM on h P2X3 (setting [1]), less than 316 nM on h P2X3 (Table 7) and 316 to 3160 nM on h P2X2/3.
